Experimental data from paper PMC12703741, “Light-Activated Metal-Dependent Protein Degradation: A Heterobifunctional Ruthenium(II) Photosensitizer Targeting New Delhi Metallo-β-lactamase 1” (Journal of the American Chemical Society, 2025).
Where two headings read alike, the source gives them in different places.

Tests used:
[1] = archetypal comparison complex; cited from earlier work
[2] = design: method as in earlier work; conditions: reference for 1O2 sensitization; ref 4 (SI), Tanielian et al., 1996; cited from earlier work
[3] = molecular target: T1, NDM-1 (Klebsiella pneumoniae, UniProt C7C422); conditions: read-out: Km(Nitrocefin); NDM-1 2 nM, 25 °C
Text: (4 pictures or pasted objects on this page, not shown here)

[4] = molecular target: T1, NDM-1; conditions: read-out: Km(Nitrocefin); previously reported; ref 5 (SI); cited from earlier work

T1 sequence (C7C422 31-270 limits assumed): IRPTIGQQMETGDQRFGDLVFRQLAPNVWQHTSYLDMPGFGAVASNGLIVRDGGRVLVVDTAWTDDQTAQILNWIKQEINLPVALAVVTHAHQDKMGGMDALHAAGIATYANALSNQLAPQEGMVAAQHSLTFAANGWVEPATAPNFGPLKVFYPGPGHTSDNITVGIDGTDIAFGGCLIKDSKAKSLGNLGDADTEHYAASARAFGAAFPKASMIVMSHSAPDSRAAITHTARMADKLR

SMILES | Luminescence lifetime of excited state [1] [ns] | 1O2 quantum yield (ΦΔ) [2] | Km [3] [µM] | Km [4] [µM]
[Cl][Ru][Cl].c1ccc(-c2ccccn2)nc1.c1ccc(-c2ccccn2)nc1.c1ccc(-c2ccccn2)nc1 [[Ru(bpy)3]Cl2, tris(2,2’-bipyridyl)ruthenium(II) dichloride] | 510 | 0.87 | – | –
O=C(Cc1cccs1)N[C@@H]1C(=O)N2C(C(=O)O)=C(/C=C/c3ccc([N+](=O)[O-])cc3[N+](=O)[O-])CS[C@H]12 [nitrocefin] | – | – | 3.1 ± 0.5 | 3.2
